pIC50: −log10 of the molar value. Where a SMILES comes first, the peptide text is derived from it. Bridges are numbered along the chain shown (N, C = ends). Where no end group is shown, it is not given here.

For one assay, the target named is T1, CR2-C3d interaction (Homo sapiens, UniProt P20023).
T1 construct: DNA corresponding to residues 1-133 of wild-type CR2 (SCR1-2) was PCR amplified; made in house; host or cells: E. coli (pMAL-P2X)
T1 sequence (P20023 21-153): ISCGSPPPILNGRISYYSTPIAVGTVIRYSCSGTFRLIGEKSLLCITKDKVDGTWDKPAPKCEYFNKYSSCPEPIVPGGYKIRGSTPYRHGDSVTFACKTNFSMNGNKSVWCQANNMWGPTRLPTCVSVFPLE
Kind of assay: Peptide competition ELISA, CR2-C3d (bound C3d, solution phase MBP-CR2). The assay is classed as binding.

Assay [1] concerns the target T2, CR2-EBV gp350 interaction (Homo sapiens, UniProt P20023). As to conditions: peptides raised against CR2-C3d.
For assay [2], the target named is T2, CR2-EBV gp350 interaction. Kind of assay: biochemical.

The pIC50 is the negative decadic logarithm of the IC50, by convention in mol/L. Read a low pIC50 as a high IC50. In the case of ISTSNPRAASTA [C3dp2.1], at CR2-C3d interaction, the pIC50 was 3.82.

On to APQHLSSQ [C3dp1.3], for which the pIC50 on CR2-C3d interaction was 4.40.

TRSYQSSLHQPA [C3dp1.2] gave a pIC50 on CR2-C3d interaction of 4.15.

At CR2-C3d interaction, APQHLSSQYSRT [C3dp1] showed a negative-log IC50 (pIC50) of 4.00. Moreover, in assay [1], the “effect on the CR2-EBV gp350 interaction (ligand specificity)” value is listed as “largely unaffected”.

In turn, ISTSNPRHHSTA [C3dp2] gave a pIC50 on CR2-C3d interaction of 3.35.

With ISTSNPRH [C3dp2.2], the pIC50 on CR2-C3d interaction is 3.72.

On CR2-C3d interaction, IATANPRHHSTA [C3dp2.3] showed a pIC50 of 3.80. This pIC50 and that of the compound before are within 0.2 log units of each other.

Consider APAHLSSQ [control], for which the pIC50 on CR2-C3d interaction was 3.15.

For `CC(C)C[C@@H]1NC(=O)[C@H](CO)NC(=O)CNC(=O)[C@H](CCC(=O)O)NC(=O)[C@H](CO)NC(=O)[C@@H](N)CSSC[C@@H](C(=O)O)NC(=O)CNC(=O)[C@H](CCCCN)NC1=O` [gp350cp1] (H-CSEGSLKGC-OH; disulfide 1-9; N-terminus and C-terminus assumed), the “effect on the CR2-C3d interaction (ligand specificity)” value at CR2-C3d interaction (peptide raised against CR2-EBV gp350) was “unaffected”. For the same compound, in assay [2], the pIC50 is 3.82.

On CR2-C3d interaction, APQALSSQYSRT [C3dp1.1] had a pIC50 of 4.15.

At CR2-C3d interaction, DPKNHVH [C3dcp1.1, DPKNHVH] gave a pIC50 of 4.02.

Source of the values: patent publication US20120108492A1, “LIGAND-SPECIFIC NON-ANTIBODY COMPOUNDS THAT INHIBIT CR2 ACTIVATION AND METHODS OF USE THEREOF” (The Regents of the University of Colorado, priority 2008, published 2012).
